Results on six compounds are retold here after patent US20100028334A1, “COMPOSITIONS AND METHODS TO POTENTIATE COLISTIN ACTIVITY” (TRUSTEES OF BOSTON UNIVERSITY, priority 2006, published 2010).

Data set [1] relates to wild-type, BW25113 E. coli cells. Briefly: colony formation unit (CFU) assay, parent strain. Format: cell-based. The protocol:
(§1) The cells were incubated with colistin at a final concentration of 1.25 ug/ml. […] 10 ul of cells were plated onto LB agar [no colistin] plates. Number of colonies were counted after overnight incubation at 37 C. Colony count was normalized to get the same starting amount of cells for all strains. […] Log change in colony forming units per ml (CFU/ml) of wild-type, BW25113 E. coli cells (mean±s.d.) in presence or absence of colistin and potassium tellurite. Cell were grown in the absence or presence of colistin (1.25 ug/ml), potassium tellurite (1.6 ug/ml) alone and combined. […] Number of colonies were counted after overnight incubation at 37 C. Colony count was normalized to get the same starting amount of cells for all strains.
For CFU measurements, 50 μl of stationary phase culture was inoculated into 5 ml of LB. 240 or 245 μl of the freshly diluted cells were placed into wells of a 96 well plate (Costar), 5 μl of colistin and or potassium tellurite were added into each well to obtain a final volume of 250 μl. The 96 well plates were then incubated at 37° C. At the 0, 3 and 6 hours time points, 20 μl of culture was collected and then serially diluted in 180 μl of 1×PBS, pH 7.2 (Fisher). A 10 μl portion of each dilution was plated onto LB agar (Fisher)), and the plate was incubated overnight at 37° C. Dilutions that yielded between 20 and 100 colonies were counted and CFU were normalized to reflect the same amount of cells for the starting cultures.
The cells were grown with or without colistin, aliquots were taken at defined time points and serial dilution of the cells plated, colony count allowed to quantify the bactericidal effect of colistin. We noticed that the iscS and ubiH mutants were slow growers and formed small size colonies compared to the parent strain.

Data set [2] deals with iscS mutant. Particulars: Rojas and Vasquez, 2005; cited from earlier work.
The target of data set [3] is Escherichia coli H+-ATP synthase (Escherichia coli, UniProt P0AB98+P68699). To be noted: cited from earlier work.
The test system of data set [4] is E. coli. Briefly: minimum inhibitory concentration (MIC) assay of colistin with mefloquine. In kind it is cell-based. The procedure: The efficacy of colistin in inhibiting the growth and/or suppressing survival of E. coli in the presence of one inhibitor, mefloquine was assessed in a minimum inhibitory concentration (MIC) assay.
Data set [5] concerns ubiH and iscS mutant E. coli cells. Briefly: colony formation unit (CFU) assay, deletion mutants. In kind it is cell-based. Particulars: colistin 1.25 ug/ml, FIG. 5A. The protocol: as §1
For CFU measurements, 50 μl of stationary phase culture was inoculated into 5 ml of LB. 240 or 245 μl of the freshly diluted cells were placed into wells of a 96 well plate (Costar), 5 μl of colistin and or potassium tellurite were added into each well to obtain a final volume of 250 μl. […] Dilutions that yielded between 20 and 100 colonies were counted and CFU were normalized to reflect the same amount of cells for the starting cultures.
The cells were grown with or without colistin, aliquots were taken at defined time points and serial dilution of the cells plated, colony count allowed to quantify the bactericidal effect of colistin. […]

For data set [6] the following is noted: cited from earlier work.
For data set [7], the system named is gram-positive bacteria. Format: cell-based. Particulars: used concurrently with colistin; data not shown.
Data set [8] has as its system P aeruginosa. To be noted: recent studies; cited from earlier work.
For data set [9] the following is noted: after intravenous administration of colistimethate (sodium); cited from earlier work.

On to `O=[Te]([O-])[O-].[K+].[K+]` [potassium tellurite], for which the “effect on CFU” value in [1] (potassium tellurite 1.6 ug/ml, 3 hour time point) is on record as “not or little affecting the CFU”. Moreover, the growth inhibition entry in data set [1] (potassium tellurite 1.6 ug/ml, 6 hours) is reported as “stronger growth inhibition”. For the same compound, the “sensitivity of iscS mutant” value in data set [2] is on record as “sensitive”.

For the compound `CC[C@H]1/C=C/C=C/C[C@@H](C)[C@H](O)[C@@](C)(O)C(=O)[C@@H](C)[C@H](O)[C@@H](C)C(=O)[C@@H](C)[C@H](O)[C@@H](C)/C=C/C(=O)O[C@@H]2[C@H](C)[C@H](CC1)O[C@]1(CC[C@H](C)[C@H](C[C@@H](C)O)O1)[C@H]2C` [oligomycin], the “inhibition of ATP-driven proton transport and ATP hydrolysis” value in data set [3] is reported as “weakly inhibited”.

Take venturicidin: the “inhibition of ATP-driven proton transport and ATP hydrolysis” value in data set [3] is “strongly inhibited”.

In the case of colistin, the MIC of colistin in data set [4] (in the absence of mefloquine) came out at 6.3 µg/mL. The MIC of colistin required to suppress growth came out at 6.3 µg/mL in [4] (in the presence of 50 μg/ml of mefloquine), 3.1 µg/mL in data set [4] (in the presence of 100 μg/ml of mefloquine) and 0.8 µg/mL in [4] (in the presence of 200 μg/ml of mefloquine). Besides, the “viability of parent strain compared to non treated cells” value in data set [1] (colistin 1.25 ug/ml, 3 and 5 hour time points, FIG. 5A) is “no significant decrease in viability”. Besides, the “viability (CFU) compared to non treated cells” value in data set [1] (colistin 1.25 ug/ml, 3 hour time point, FIG. 5B) is recorded as “no significant decrease in viability”. In addition, the “viability (CFU)” value in [1] (colistin 1.25 ug/ml, 5 hour time point, FIG. 5B) was “decrease in viability”. Also, the colony detection entry in [5] (5 hour time point) was “almost no colony detection”. Further, in [5], the “viability of mutants when exposed to colistin” value was “significant decrease in viability”. Besides, the “stability in human plasma” value in data set [6] is given as “more stable than colistimethate”.

Turning to `OC(c1cc(C(F)(F)F)nc2c(C(F)(F)F)cccc12)C1CCCCN1` (stereo not shown) [mefloquine], the “potentiation of colistin efficacy by mefloquine” value in data set [4] (mefloquine at concentrations above 50 μg/ml or greater) is given as “dose-dependent potentiation of colistin efficacy”. Besides, the “potentiation of colistin against gram-positive bacteria” value in data set [7] is “potentiates colistin ability to decrease gram-positive bacteria”.

Regarding colistimethate, the antibacterial activity result in [8] is given as “non-active prodrug of colistin”. Further, the “plasma half-lives relative to those of the colistin generated” value in data set [9] was “approximately half”.
